Experimental data: publication PMC7187627 (Antimicrobial Agents and Chemotherapy, 2019)
Values after ≈ are worked out from the molar mass of the structure shown. Read-outs that look alike come from different tables or passages of the source.

What was measured:
[1] = Plasma pharmacokinetics, multiple-ascending-dose phase 1 study; assay type: in vivo, human; details: human, plasma; for Vd/F: read-out: Vz/F,ss
Description: This study was conducted in full accordance with the Declaration of Helsinki and good clinical practices (GCP) at Quintiles Phase One Services in Overland Park, KS. Subjects were randomized in a 4:1 fashion (8 active:2 placebo) in each cohort to receive 200 mg, 400 mg, or 600 mg of CRS3123 or matching placebo every 12 h for 10 days (https://clinicaltrials.gov/ct2/show/NCT02106338). Subjects fasted 1 h before and 2 h after administration of the study product with a minimum of 8 oz. (240 ml) of water. Water and noncaffeinated drinks (except grapefruit juice) during the study were not restricted. Informed consent was obtained before any study-related procedures and clinical evaluations were performed. All 30 randomized subjects completed the study; 24 subjects received CRS3123 and 6 subjects received placebo. There were no premature withdrawals or discontinuations.
After a screening period of up to 35 days, eligible subjects were admitted to the study center for baseline evaluations on day −1. On the morning of day 1, eligible subjects were randomized to receive either the study drug or placebo orally every 12 h through day 10. Subjects remained inpatient at the study center until discharge on day 12. During the inpatient period, subjects were monitored for safety and pharmacokinetics (PK). Subjects were followed for 2 additional outpatient visits at the study center, on days 18 ± 2 and 29 ± 2.
PK method development, validation, and sample testing for plasma, feces, and urine were performed at KCAS, LLC (Shawnee, KS). Plasma, urine, and fecal concentrations of CRS3123 were determined by means of validated, sensitive, and specific high-performance liquid chromatography/tandem mass spectrometric (HPLC-MS/MS) assays. The lower limits of quantification of CRS3123 in plasma, feces, and urine were 10.0 ng/ml, 60.0 ng/g, and 100.0 ng/ml, respectively. The validated urine PK assay measured total free CSR3123. Since the majority of urinary CRS3123 was excreted as glucuronide conjugates ([32]), an enzymatic cleavage step using glucuronidase was added to the process to convert the glucuronide conjugates to free CRS3123 for the urine analysis.
The PK population consisted of all subjects who received active study drug (CRS3123) and had at least one measured CRS3123 concentration at a scheduled PK time point after the start of study drug administration.
Pharmacokinetic parameters for plasma were derived using noncompartmental methods with Phoenix WinNonlin version 6.4 (Pharsight Corporation, Certara L.P., Princeton, NJ). PK parameters for urine and feces were derived using SAS version 9.4 (SAS Institute, Inc., Cary, NC). All statistical calculations and reporting were performed using SAS version 9.4. Graphics were prepared with SAS version 9.4 or SigmaPlot 12.5 (Systat Software, Inc., San Jose, CA).
(i) Plasma PK. Plasma concentrations of CRS3123 throughout the 12-h dosing interval on PK days (day 1 and day 10) were summarized using descriptive statistics for each treatment.
One-way analysis of variance (ANOVA) models were used to assess any differences in appropriate PK parameters between adjacent dose levels following a single dose (day 1) and multiple doses (day 10). An ANOVA model on the log-transformed PK parameters (AUC0–12 and Cmax on day 1; AUC0–tau and Cmax on day 10) with fixed effect for treatment was performed separately for the single-dose analysis and multiple-dose analysis. From these models, the least-squares (LS) means together with 95% confidence intervals (Cis) for each dose and the LS means with corresponding 90% CIs for all adjacent dose pairs were calculated. Transformed back from the logarithmic scale, geometric LS means with corresponding 90% CIs were provided for each dose and adjacent dose ratios following both single and multiple dosing. PK accumulation was presented using descriptive statistics, and achievement of steady state was assessed graphically. […]

[2] = system: C. difficile; parameters: method as in PMID 19258353; details: cited from earlier work

Molecule `O=c1cc(NCCCN[C@@H]2CCOc3c(Br)cc(Br)cc32)[nH]c2ccsc12` [CRS3123] has a Vd/F ([1]; oral, 400 mg, 400 mg Q12h, day 10, geometric mean) of 937 L, a Cmax ([1]; oral, 400 mg, 400 mg Q12h, day 10, median, read-out: Plasma Cmax,ss) of 603 ng/mL and a Vd/F ([1]; oral, 400 mg, 400 mg Q12h, day 10, median) of 917 L. It also gave a half-life ([1]; oral, 600 mg, 600 mg Q12h, day 1, geometric mean, read-out: Plasma t1/2 (converted)) of 3.04 h, a Cmax ([1]; oral, 600 mg, 600 mg Q12h, day 1, median, read-out: Plasma Cmax) of 642 ng/mL and a half-life ([1]; oral, 600 mg, 600 mg Q12h, day 10, geometric mean, read-out: Plasma t1/2,ss (converted)) of 6.32 h. It also gave a Vd/F ([1]; oral, 600 mg, 600 mg Q12h, day 10, geometric mean) of 1400 L, a Cmax ([1]; oral, 600 mg, 600 mg Q12h, day 10, median, read-out: Plasma Cmax,ss) of 674 ng/mL and a Vd/F ([1]; oral, 600 mg, 600 mg Q12h, day 10, median) of 1410 L. The Tmax ([1]; oral, 600 mg, after first dose, day 1, range across the 3 dose groups (200, 400, 600 mg), read-out: median time to maximum concentration (Tmax)) was 7200 to 10800 s, the half-life ([1]; oral, after 10 days twice-daily, range across the three dose groups, read-out: geometric mean t1/2,ss) was 5 to 6 h and the Tmax ([1]; oral, after 10 days twice-daily, range across the three dose groups, read-out: median Tmax at steady state (Tmax,ss)) was 3600 to 7200 s. It also gave a half-life ([1]; oral, after first dose, day 1, range across the 3 dose groups, read-out: geometric mean half-life (t1/2)) of 3 to 4 h, an AUC(0-t) ([1]; oral, 200 mg Q12h, day 1, median, read-out: Plasma AUC(0-12)) of 1230 ng·h/mL and an AUC ([1]; oral, 200 mg Q12h, day 10, median, read-out: Plasma AUC(0-tau)) of 2470 ng·h/mL. It also gave an AUC(0-t) ([1]; oral, 400 mg Q12h, day 1, median, read-out: Plasma AUC(0-12)) of 2510 ng·h/mL, an AUC ([1]; oral, 400 mg Q12h, day 10, median, read-out: Plasma AUC(0-tau)) of 3310 ng·h/mL and an AUC(0-t) ([1]; oral, 600 mg Q12h, day 1, median, read-out: Plasma AUC(0-12)) of 3630 ng·h/mL. The AUC ([1]; oral, 600 mg Q12h, day 10, median, read-out: Plasma AUC(0-tau)) was 3740 ng·h/mL, the Cmax ([1]; po, 200 mg, 200 mg Q12h oral, day 1, geometric mean (%CV), read-out: Plasma Cmax) was 352 ng/mL and the Tmax ([1]; po, 200 mg, 200 mg Q12h oral, day 1, median (minimum, maximum), read-out: Plasma Tmax) was 7200 s. For the same molecule, the half-life ([1]; po, 200 mg, 200 mg Q12h oral, day 1, median (minimum, maximum), read-out: Plasma t1/2 (converted)) was 2.96 h, the Cmax ([1]; po, 200 mg, 200 mg Q12h oral, day 10, geometric mean (%CV), read-out: Plasma Cmax,ss) was 470 ng/mL and the Tmax ([1]; po, 200 mg, 200 mg Q12h oral, day 10, median (minimum, maximum), read-out: Plasma Tmax,ss) was 5400 s. The half-life ([1]; po, 200 mg, 200 mg Q12h oral, day 10, median (minimum, maximum), read-out: Plasma t1/2,ss (converted)) was 4.59 h, the Cmax ([1]; po, 400 mg, 400 mg Q12h oral, day 1, geometric mean (%CV), read-out: Plasma Cmax) was 507 ng/mL and the Tmax ([1]; po, 400 mg, 400 mg Q12h oral, day 1, median (minimum, maximum), read-out: Plasma Tmax) was 10800 s. It also gave a half-life ([1]; po, 400 mg, 400 mg Q12h oral, day 1, median (minimum, maximum), read-out: Plasma t1/2 (converted)) of 3.61 h, a Cmax ([1]; po, 400 mg, 400 mg Q12h oral, day 10, geometric mean (%CV), read-out: Plasma Cmax,ss) of 615 ng/mL and a Tmax ([1]; po, 400 mg, 400 mg Q12h oral, day 10, median (minimum, maximum), read-out: Plasma Tmax,ss) of 7200 s. It also gave a half-life ([1]; po, 400 mg, 400 mg Q12h oral, day 10, median (minimum, maximum), read-out: Plasma t1/2,ss (converted)) of 5.01 h, a Cmax ([1]; po, 600 mg, 600 mg Q12h oral, day 1, geometric mean (%CV), read-out: Plasma Cmax) of 654 ng/mL and a Tmax ([1]; po, 600 mg, 600 mg Q12h oral, day 1, median (minimum, maximum), read-out: Plasma Tmax) of 7200 s. For the same molecule, the half-life ([1]; po, 600 mg, 600 mg Q12h oral, day 1, median (minimum, maximum), read-out: Plasma t1/2 (converted)) was 2.85 h, the Cmax ([1]; po, 600 mg, 600 mg Q12h oral, day 10, geometric mean (%CV), read-out: Plasma Cmax,ss) was 731 ng/mL and the Tmax ([1]; po, 600 mg, 600 mg Q12h oral, day 10, median (minimum, maximum), read-out: Plasma Tmax,ss) was 3600 s. For the same molecule, the half-life ([1]; po, 600 mg, 600 mg Q12h oral, day 10, median (minimum, maximum), read-out: Plasma t1/2,ss (converted)) was 6.1 h, the AUC(0-t) ([1]; 200 mg Q12h oral, day 1, geometric mean (%CV), read-out: Plasma AUC (AUC0–12)) was 1550 ng·h/mL and the AUC ([1]; 200 mg Q12h oral, day 10, geometric mean (%CV), read-out: Plasma AUC (AUC0–tau)) was 2500 ng·h/mL. It also gave an AUC(0-t) ([1]; 400 mg Q12h oral, day 1, geometric mean (%CV), read-out: Plasma AUC (AUC0–12)) of 2340 ng·h/mL, an AUC ([1]; 400 mg Q12h oral, day 10, geometric mean (%CV), read-out: Plasma AUC (AUC0–tau)) of 3200 ng·h/mL and an AUC(0-t) ([1]; 600 mg Q12h oral, day 1, geometric mean (%CV), read-out: Plasma AUC (AUC0–12)) of 3560 ng·h/mL. The AUC ([1]; 600 mg Q12h oral, day 10, geometric mean (%CV), read-out: Plasma AUC (AUC0–tau)) was 4030 ng·h/mL and the MIC90 [2] was 1 µg/mL (≈ 1.95 µM).
